# Reference: ChEMBL document CHEMBL1201862, “PubChem BioAssay data set” (2004)
# Calls of active or inactive are those of the source.
# Assays:
# [1] = target: Eukaryotic translation initiation factor 4E (Mus musculus, UniProt P63073); assay: blockers of eIF4G binding by eIF4E – biochemical, TR-FRET, dose response (AID 855); assay type: functional;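 also: potency for disrupting eIF4E binding to eIF4GI seen as loss of FRET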
# Cytochrome P450 1A2 = target: T1, Cytochrome P450 1A2 (Homo sapiens, UniProt P05177);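 also: PubChem cytochrome P450 panel assay, CYP1A2 panel member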
# T1 sequence (P05177 whole entry): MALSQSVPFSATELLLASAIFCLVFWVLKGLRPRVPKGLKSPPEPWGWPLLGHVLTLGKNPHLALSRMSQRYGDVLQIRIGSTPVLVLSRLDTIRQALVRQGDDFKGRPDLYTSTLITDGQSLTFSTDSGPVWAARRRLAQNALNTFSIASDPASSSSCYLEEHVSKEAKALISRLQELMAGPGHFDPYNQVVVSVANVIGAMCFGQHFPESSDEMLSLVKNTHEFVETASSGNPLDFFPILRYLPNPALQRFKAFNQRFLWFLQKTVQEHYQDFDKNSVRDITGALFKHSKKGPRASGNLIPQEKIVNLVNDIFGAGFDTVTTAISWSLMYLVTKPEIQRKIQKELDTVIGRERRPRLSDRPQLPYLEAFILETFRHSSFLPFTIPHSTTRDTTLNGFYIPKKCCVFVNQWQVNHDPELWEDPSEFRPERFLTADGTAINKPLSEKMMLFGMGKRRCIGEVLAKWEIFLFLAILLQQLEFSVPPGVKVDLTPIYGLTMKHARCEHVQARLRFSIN
# [2] = target: T2, G-protein coupled receptor 55 (Homo sapiens, UniProt Q9Y2T6); assay: selective activators of receptor GPR55 – imaging, U2OS cells, beta-arrestin-GFP redistribution, primary screen (AID 1961); assay type: functional
# T2 sequence (Q9Y2T6 whole entry, the tested form may be a part): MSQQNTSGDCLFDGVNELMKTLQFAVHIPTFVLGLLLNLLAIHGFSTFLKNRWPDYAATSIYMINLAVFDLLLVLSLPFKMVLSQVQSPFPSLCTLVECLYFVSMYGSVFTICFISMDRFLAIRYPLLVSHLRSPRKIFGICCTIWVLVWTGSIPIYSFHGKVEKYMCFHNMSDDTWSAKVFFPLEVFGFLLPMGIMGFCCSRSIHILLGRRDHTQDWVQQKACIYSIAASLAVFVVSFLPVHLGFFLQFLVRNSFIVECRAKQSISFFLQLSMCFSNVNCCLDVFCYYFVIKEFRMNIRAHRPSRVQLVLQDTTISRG
# [3] = target: Disintegrin and metalloproteinase domain-containing protein 17 (Homo sapiens, UniProt P78536); assay: exosite inhibitors of ADAM17, dose response, biochemical (AID 743260)
# Chain of Disintegrin and metalloproteinase domain-containing protein 17 (P78536 whole entry, the tested form may be a part): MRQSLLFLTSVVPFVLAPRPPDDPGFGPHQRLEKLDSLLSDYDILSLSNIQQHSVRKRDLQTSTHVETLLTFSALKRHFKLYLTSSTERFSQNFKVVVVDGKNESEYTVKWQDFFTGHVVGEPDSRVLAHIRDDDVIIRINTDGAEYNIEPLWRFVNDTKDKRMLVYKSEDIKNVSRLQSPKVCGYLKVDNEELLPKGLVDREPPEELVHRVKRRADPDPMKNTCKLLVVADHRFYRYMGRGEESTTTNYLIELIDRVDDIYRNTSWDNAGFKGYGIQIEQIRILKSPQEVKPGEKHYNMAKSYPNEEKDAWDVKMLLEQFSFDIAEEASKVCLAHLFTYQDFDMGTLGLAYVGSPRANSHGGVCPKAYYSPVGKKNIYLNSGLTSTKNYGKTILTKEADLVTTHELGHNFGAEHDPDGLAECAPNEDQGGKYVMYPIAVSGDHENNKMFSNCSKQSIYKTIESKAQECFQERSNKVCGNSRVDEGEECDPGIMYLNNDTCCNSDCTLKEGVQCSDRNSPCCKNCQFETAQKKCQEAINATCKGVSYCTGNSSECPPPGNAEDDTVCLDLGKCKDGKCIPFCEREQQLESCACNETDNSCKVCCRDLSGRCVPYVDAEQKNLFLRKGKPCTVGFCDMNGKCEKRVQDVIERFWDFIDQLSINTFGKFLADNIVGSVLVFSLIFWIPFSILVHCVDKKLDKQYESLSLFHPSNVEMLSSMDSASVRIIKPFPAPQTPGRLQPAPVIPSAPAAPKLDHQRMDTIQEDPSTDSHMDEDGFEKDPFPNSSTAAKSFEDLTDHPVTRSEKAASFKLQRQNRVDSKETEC
# [4] = inhibition of ADAM10 peptide cleavage – biochemical, FRET peptide substrate, recombinant human ADAM10, selectivity assay for ADAM17 exosite inhibitor project, dose response (AID 743259);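 also: ADAM10 enzyme cleaving a FRET peptide substrate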
# [5] = Trypanosoma cruzi growth suppression in host cells – NIH3T3 host cells, beta-gal luminescence, confirmation (AID 2044); assay type: functional, cell-based;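 also: intracellular parasites grown in NIH/3T3 mouse fibroblasts as host cells; luminescent beta-galactosidase reporter signal from transgenic T. cruzi replicating inside host cells; inhibitors lower the luminescence signal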
# [6] = NIH3T3 cell viability loss – ATP luminescence, mouse fibroblasts, counter-screen, dose response (AID 2010); assay type: functional, cell-based;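 also: cells exposed to compound for about 90 hours before reading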
# [7] = THP-1 cell cytotoxicity, dose response, cytotoxicity control for non-replicating M. tuberculosis project (AID 489025); assay type: functional
# [8] = HepG2 cell cytotoxicity, dose response, cytotoxicity control for non-replicating M. tuberculosis project (AID 489018); assay type: functional; conditions: Mycobacterium tuberculosis
# [9] = target: T3, Ubiquitin-conjugating enzyme E2 N (Homo sapiens, UniProt P61088); assay type: functional;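 also: Dose-response confirmation in a TR-FRET assay detecting UBC13-driven polyubiquitin chain formation, inhibition measured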
# T3 sequence (P61088 whole entry): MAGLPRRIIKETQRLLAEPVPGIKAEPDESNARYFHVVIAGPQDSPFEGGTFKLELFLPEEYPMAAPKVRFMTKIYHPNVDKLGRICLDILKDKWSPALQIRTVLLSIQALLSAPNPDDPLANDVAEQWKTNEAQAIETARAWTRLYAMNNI
# [10] = Vero E6 cell cytotoxicity, dose response, cytotoxicity control for non-replicating M. tuberculosis project, secondary assay (AID 492998); assay type: functional, VeroE6; conditions: Vero C1008
# [11] = target: FAD-linked sulfhydryl oxidase ALR (Homo sapiens, UniProt P55789); assay: ALR-catalysed DTT oxidation blockers – biochemical, H2O2 detection, luminescence, cherry-pick, dose response (AID 493248)
# Chain of FAD-linked sulfhydryl oxidase ALR (P55789 whole entry): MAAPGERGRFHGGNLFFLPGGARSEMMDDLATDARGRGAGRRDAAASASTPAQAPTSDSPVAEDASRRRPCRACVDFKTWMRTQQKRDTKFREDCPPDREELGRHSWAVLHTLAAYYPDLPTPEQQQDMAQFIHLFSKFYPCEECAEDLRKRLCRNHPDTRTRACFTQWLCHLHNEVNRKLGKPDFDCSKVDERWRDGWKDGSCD
# cells = assay type: functional
# INS1 = assay: INS-1E survival protection against cytokine death – cell-based, luminescence, retest, dose response (AID 449756); assay type: functional; conditions: Rattus norvegicus, INS1;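 also: cell death triggered by IL-1 beta plus TNF-alpha plus IFN-gamma mixture; protective hits raise ATP signal compared with cytokine alone wells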
# [12] = viability loss in HepG2 hepatoma cells – cell-based, ATP luminescence, cherry-pick, activator set 2, cytotoxicity control, dose response (AID 1053143); assay type: functional
# [13] = target: Luciferin 4-monooxygenase (Photinus pyralis, UniProt P08659); assay: inhibition of purified Photinus pyralis luciferase – biochemical, luminescence, dose response (AID 1891)
# Chain of Luciferin 4-monooxygenase (P08659 whole entry): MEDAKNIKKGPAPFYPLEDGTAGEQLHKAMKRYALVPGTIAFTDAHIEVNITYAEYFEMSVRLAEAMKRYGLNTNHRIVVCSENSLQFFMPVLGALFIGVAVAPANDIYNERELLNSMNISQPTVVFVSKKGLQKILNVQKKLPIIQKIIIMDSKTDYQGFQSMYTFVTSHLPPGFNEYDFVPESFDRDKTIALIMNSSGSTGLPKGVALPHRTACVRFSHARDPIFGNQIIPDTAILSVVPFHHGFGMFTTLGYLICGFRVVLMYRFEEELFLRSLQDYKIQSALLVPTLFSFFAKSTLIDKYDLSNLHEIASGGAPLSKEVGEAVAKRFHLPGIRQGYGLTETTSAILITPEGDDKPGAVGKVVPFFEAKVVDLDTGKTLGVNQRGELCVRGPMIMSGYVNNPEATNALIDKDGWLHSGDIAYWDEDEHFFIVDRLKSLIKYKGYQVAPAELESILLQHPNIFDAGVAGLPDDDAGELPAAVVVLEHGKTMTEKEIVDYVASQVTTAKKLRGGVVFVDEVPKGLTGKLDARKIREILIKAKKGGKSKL
# [14] = Luminescence Cell-Based Dose Confirmation HTS to Identify Inhibitors of Platelet Dense Granule Release. [Related pubchem assays: 1663 (Primary HTS), 1678 (Summary of Project)]; assay type: functional
# [15] = target: T2, G-protein coupled receptor 55; assay: inhibition of LPI-stimulated GPR55 beta-arrestin translocation – imaging, U2OS, beta-arrestin-GFP, LPI agonist, primary screen (AID 2013); assay type: functional;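 also: antagonist potency measured as reduced agonist-driven arrestin aggregation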
# Bcl-2-like protein 10 = target: T4, Bcl-2-like protein 10 (Homo sapiens, UniProt Q9HD36); assay: Bcl-B/TR3 peptide binding disruption – biochemical, fluorescence polarization, FITC-TR3 peptide, selectivity assay for Bfl-1 inhibitor project, primary screen (AID 748);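 also: fluorescence polarization from a fluorescein-labelled TR3 peptide binding purified Bcl-B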
# T4 sequence (Q9HD36 whole entry): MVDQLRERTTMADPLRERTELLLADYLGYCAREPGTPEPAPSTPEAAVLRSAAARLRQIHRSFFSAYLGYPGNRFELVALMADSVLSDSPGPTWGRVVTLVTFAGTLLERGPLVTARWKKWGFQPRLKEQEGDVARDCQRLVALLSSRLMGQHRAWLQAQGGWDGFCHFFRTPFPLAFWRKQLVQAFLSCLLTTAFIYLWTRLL
# [16] = target: DNA (cytosine-5)-methyltransferase 1 (Homo sapiens, UniProt P26358); assay: inhibition of DNA methylation by DNMT1 – biochemical, fluorescent molecular beacon, confirmation (AID 602386); assay type: functional
# Chain of DNA (cytosine-5)-methyltransferase 1 (P26358 whole entry): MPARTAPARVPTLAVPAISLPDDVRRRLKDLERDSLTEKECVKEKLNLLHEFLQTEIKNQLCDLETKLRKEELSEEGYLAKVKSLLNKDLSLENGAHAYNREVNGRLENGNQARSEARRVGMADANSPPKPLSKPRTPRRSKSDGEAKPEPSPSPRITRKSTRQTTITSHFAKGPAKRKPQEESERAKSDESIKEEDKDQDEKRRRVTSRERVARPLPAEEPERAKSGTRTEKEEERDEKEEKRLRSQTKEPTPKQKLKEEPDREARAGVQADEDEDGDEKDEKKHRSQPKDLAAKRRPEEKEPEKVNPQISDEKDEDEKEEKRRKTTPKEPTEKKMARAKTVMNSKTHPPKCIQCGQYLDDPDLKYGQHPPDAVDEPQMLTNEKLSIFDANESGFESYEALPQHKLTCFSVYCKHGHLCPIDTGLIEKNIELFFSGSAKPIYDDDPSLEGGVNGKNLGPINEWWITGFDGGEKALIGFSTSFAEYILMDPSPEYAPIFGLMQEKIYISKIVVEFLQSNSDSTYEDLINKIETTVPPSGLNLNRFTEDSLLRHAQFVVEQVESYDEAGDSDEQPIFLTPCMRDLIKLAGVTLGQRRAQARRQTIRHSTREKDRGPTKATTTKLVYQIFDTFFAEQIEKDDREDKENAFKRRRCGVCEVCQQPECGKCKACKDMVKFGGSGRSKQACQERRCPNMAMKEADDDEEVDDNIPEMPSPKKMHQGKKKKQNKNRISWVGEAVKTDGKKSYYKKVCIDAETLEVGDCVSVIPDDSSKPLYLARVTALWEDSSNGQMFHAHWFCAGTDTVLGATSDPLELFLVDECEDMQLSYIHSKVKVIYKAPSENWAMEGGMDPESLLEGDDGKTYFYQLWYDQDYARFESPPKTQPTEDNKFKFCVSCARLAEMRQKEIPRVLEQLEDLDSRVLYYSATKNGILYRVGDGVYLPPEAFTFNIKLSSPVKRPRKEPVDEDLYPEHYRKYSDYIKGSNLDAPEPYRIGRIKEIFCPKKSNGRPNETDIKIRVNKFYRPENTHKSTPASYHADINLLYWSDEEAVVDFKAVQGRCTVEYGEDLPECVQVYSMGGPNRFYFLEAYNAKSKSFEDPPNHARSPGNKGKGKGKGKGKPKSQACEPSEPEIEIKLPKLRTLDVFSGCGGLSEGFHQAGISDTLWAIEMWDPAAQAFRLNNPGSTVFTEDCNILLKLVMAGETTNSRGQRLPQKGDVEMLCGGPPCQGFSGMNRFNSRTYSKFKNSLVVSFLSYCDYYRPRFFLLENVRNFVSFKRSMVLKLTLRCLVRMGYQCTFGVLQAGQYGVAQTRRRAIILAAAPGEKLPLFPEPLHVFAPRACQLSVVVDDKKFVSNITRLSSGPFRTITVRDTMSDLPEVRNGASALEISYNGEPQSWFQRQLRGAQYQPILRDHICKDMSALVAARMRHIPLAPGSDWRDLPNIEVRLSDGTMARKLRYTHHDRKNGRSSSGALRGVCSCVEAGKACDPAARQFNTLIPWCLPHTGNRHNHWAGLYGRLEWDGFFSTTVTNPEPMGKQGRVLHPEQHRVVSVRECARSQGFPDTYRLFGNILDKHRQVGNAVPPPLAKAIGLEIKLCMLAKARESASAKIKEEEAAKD
# Chain of Eukaryotic translation initiation factor 4E (P63073 whole entry): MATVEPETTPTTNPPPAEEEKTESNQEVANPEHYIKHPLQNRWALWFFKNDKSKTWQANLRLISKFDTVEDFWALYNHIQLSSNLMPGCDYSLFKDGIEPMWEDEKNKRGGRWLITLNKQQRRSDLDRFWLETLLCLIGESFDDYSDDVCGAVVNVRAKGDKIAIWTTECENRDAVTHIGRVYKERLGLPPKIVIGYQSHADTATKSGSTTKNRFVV
structure (smiles),measurement,setting,value
O=C(Oc1c(Br)cc(C(=S)N2CCOCC2)cc1Br)c1ccc(Cl)cc1,IC50,[1],> 64 µM (inactive)
same,AC50,Cytochrome P450 1A2,17.8 µM (inconclusive)
Cc1ccc(C(=O)N2CCN(C3c4cccc5cccc(c45)C3NS(=O)(=O)c3ccccc3)CC2)cc1 (stereo unspecified),EC50,[2],3.68 µM (active)
same,IC50,[3],> 69.5 µM (inactive)
same,IC50,[4],> 69.5 µM (inactive)
CN(C)CCCNc1cc(C(C)(C)C)nc2c(-c3ccccc3)cnn12,EC50,[5],0.574 µM (active)
same,EC50,[6],4.96 µM (active)
same,CC50,[7],24.5 µM (active)
same,CC50,[8],> 20 µM (active)
same,IC50,[9],> 20 µM (inactive)
same,CC50,[10],> 20 µM (active)
same,AC50,[11],2.53 µM (active)
same,IC50,cells,19.8 µM (active)
same,AC50,INS1,13.8 µM (active)
same,AC50,[12],15.5 µM (active)
COc1ccc(-c2nc(-c3ccc(Br)cc3)no2)c(OC)c1,EC50,[13],> 112 µM (not active)
same,EC50,[14],> 112 µM (not active)
same,IC50,[1],> 64 µM (inactive)
CCOC(=O)c1cc(C#N)c(Oc2ccccc2)nc1-c1ccccc1,IC50,[15],1.69 µM (active)
Cc1cccc(OCC(=O)Nc2ccc(N3CCCC3)cc2)c1C,IC50,Bcl-2-like protein 10,96.2 µM (inactive)
same,IC50,[16],> 99 µM (inactive)
